This is an account of results in US20190282497A1 (Bryn Pharma, LLC, priority 2018, published 2019).

The experiment relates to histamine induced nasal congestion.

For the compound `NCCc1c[nH]cn1` [Histamine, histamine], the “nasal congestion and flow restriction pressure” value (Group 1, 5 and 10 minutes post-histamine exposure) was “progressive increase in nasal congestion and flow restriction pressure”. Besides, for the setting “pilot study, no epinephrine, 60, 80 and 100 minute time points”, the “histamine induced congestion without epinephrine” value is “remains elevated at significant levels”.
